{"source": "patent US20150050299A1", "about": "“METHODS FOR ENHANCING IMMUNE RESPONSE” (priority 2010, published 2015)", "key": {"[1]": {"tested_on": "squamous cell carcinomas (SCCs)", "assay_type": "in vivo", "method": "The combination therapy of polyamine biosynthesis/uptake inhibition was tested against the K6/ODC transgenic mouse murine squamous cell carcinoma (SCC) model recently described.^98 The K6/ODC model was developed to assess whether ODC overexpression was a contributing cause, or an effect of malignant transformation. […] While most skin tumorigenesis models yielded benign squamous papillomas as the predominant tumor type, when the K6/ODC transgene was expressed on the FVB/N strain background, the majority of tumors that developed were aggressive squamous cell carcinomas. These SCCs appeared as early as 5 weeks after treatment and in high multiplicities (up to four tumors per mouse), making this a very efficient model for SCC induction. Using this model, we were thus able to conclude that over-expression of ODC is a sufficient condition for tumor promotion in mouse skin.^99\nWe conducted an in vivo anti-tumor trial of DFMO combined with either the D-C16-acyl Lys-spm conjugate AMXT 1501 (FIG. 4) or the L-C16-alkyl AMXT 1569 analog (FIG. 5) in the K6/ODC SCC model.\nThe concentration of AMXT 1501 was 14 μg/ml, or an average daily dose of ˜50-65 μg (equivalent to ˜3 mg/kg/d). […] It is expected that great improvements in the oral bioavailability of AMXT 1501 would result from insightful drug formulation."}, "human TLR 2": {"molecular_target": "human TLR 2 (Homo sapiens, UniProt O60603)", "sequence (O60603 21-784)": "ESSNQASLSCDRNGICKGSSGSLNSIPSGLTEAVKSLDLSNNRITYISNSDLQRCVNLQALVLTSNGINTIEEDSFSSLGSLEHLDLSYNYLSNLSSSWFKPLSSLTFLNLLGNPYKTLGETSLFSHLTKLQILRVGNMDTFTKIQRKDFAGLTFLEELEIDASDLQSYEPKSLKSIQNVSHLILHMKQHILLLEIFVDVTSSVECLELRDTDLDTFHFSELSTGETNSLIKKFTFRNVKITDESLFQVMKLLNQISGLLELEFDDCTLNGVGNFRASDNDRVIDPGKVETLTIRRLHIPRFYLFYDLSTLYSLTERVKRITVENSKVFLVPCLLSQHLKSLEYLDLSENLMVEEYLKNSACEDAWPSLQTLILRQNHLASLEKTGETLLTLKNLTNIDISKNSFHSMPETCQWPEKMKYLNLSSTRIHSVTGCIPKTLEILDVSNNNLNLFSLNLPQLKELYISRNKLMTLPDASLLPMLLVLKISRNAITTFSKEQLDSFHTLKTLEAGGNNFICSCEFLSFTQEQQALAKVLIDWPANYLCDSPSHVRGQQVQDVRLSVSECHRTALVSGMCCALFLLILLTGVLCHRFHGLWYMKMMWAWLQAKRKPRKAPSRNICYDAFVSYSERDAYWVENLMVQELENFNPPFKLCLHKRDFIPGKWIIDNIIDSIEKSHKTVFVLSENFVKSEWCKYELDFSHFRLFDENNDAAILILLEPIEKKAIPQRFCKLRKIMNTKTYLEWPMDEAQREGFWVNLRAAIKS", "assay": "Toll-Like Receptor (TLR) screening assay, TLR2", "assay_type": "cell-based", "settings": "10 μM; control HKLM"}, "human TLR4": {"molecular_target": "human TLR4 (Homo sapiens, UniProt O00206+Q9Y6Y9)", "sequence (O00206 24-839)": "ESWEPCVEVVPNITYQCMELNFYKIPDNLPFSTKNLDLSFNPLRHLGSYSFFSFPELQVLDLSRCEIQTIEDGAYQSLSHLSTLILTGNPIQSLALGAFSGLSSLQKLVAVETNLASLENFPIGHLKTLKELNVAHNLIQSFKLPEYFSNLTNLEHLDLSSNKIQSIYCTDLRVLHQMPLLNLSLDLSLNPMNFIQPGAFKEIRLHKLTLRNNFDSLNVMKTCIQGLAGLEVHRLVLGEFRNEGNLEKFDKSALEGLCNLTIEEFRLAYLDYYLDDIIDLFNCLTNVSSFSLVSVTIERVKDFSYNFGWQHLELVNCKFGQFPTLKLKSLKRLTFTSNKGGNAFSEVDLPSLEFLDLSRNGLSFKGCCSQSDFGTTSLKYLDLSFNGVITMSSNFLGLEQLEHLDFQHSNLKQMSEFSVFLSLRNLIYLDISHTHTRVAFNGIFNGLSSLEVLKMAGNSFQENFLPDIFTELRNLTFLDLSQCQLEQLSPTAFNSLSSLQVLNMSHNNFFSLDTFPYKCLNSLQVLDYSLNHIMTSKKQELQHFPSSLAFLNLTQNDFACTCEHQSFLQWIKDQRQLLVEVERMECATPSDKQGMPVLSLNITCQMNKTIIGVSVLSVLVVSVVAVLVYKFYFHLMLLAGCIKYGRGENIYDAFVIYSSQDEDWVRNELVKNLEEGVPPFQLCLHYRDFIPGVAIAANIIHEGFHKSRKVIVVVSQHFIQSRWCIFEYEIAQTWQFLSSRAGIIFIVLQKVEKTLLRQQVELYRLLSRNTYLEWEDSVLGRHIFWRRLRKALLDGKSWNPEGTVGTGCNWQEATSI", "sequence (Q9Y6Y9 17-160 limits assumed)": "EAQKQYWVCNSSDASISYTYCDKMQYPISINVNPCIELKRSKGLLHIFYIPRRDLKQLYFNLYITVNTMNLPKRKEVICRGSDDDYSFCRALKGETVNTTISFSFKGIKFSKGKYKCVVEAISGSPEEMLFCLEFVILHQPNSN", "assay": "Toll-Like Receptor (TLR) screening assay, TLR4", "assay_type": "cell-based", "settings": "10 μM; control LPS"}, "human TLR3": {"molecular_target": "T1, human TLR3 (Homo sapiens, UniProt O15455)", "T1 sequence (O15455 24-904)": "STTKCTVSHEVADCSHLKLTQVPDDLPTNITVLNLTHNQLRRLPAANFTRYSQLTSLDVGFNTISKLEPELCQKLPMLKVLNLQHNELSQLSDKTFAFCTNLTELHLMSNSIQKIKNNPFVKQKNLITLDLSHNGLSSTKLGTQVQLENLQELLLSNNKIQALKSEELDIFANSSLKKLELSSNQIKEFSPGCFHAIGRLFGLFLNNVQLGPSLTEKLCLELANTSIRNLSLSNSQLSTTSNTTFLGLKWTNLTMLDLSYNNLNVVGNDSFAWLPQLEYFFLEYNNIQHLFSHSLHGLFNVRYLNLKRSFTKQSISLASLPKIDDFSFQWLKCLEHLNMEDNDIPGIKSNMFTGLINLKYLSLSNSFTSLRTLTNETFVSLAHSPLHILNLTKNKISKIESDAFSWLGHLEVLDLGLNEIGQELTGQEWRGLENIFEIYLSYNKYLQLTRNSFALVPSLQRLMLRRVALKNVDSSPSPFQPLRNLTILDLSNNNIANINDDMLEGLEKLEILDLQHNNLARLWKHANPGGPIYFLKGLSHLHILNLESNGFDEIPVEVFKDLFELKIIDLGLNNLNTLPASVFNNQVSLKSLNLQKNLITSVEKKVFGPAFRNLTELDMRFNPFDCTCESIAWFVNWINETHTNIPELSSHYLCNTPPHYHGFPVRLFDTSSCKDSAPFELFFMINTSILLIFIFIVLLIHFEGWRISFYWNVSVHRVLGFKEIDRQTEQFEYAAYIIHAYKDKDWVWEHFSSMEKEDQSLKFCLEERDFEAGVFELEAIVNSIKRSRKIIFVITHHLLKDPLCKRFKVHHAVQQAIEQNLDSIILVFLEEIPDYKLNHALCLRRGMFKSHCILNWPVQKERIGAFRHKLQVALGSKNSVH", "assay": "Toll-Like Receptor (TLR) screening assay, TLR3", "assay_type": "cell-based", "settings": "10 μM"}, "human TLR5": {"molecular_target": "human TLR5 (Homo sapiens, UniProt O60602)", "sequence (O60602 21-858)": "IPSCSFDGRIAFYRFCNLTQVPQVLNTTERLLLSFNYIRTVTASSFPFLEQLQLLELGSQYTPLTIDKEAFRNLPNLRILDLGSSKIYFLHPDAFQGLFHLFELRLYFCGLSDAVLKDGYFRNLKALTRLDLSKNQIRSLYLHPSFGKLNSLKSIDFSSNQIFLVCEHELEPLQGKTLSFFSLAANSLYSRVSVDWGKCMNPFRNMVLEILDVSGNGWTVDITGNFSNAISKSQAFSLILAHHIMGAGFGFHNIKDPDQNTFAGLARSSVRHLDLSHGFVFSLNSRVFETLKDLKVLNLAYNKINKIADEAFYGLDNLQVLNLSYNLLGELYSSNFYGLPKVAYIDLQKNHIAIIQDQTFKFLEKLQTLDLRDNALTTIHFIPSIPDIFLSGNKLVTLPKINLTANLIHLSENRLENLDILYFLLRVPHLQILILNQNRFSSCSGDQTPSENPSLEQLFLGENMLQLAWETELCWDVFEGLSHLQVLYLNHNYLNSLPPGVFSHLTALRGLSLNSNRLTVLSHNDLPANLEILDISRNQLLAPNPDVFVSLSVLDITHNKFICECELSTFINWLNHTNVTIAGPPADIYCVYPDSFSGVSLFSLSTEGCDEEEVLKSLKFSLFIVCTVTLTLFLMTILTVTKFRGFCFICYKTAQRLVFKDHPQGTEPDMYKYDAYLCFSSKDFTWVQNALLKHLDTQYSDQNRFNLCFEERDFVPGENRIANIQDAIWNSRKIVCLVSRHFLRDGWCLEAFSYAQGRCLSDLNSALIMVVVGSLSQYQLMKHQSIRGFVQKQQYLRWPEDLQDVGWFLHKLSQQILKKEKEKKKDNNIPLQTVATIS", "assay": "Toll-Like Receptor (TLR) screening assay, TLR5", "assay_type": "cell-based", "settings": "10 μM"}, "human TLR7": {"molecular_target": "T2, human TLR7 (Homo sapiens, UniProt Q9NYK1)", "T2 sequence (Q9NYK1 27-1049)": "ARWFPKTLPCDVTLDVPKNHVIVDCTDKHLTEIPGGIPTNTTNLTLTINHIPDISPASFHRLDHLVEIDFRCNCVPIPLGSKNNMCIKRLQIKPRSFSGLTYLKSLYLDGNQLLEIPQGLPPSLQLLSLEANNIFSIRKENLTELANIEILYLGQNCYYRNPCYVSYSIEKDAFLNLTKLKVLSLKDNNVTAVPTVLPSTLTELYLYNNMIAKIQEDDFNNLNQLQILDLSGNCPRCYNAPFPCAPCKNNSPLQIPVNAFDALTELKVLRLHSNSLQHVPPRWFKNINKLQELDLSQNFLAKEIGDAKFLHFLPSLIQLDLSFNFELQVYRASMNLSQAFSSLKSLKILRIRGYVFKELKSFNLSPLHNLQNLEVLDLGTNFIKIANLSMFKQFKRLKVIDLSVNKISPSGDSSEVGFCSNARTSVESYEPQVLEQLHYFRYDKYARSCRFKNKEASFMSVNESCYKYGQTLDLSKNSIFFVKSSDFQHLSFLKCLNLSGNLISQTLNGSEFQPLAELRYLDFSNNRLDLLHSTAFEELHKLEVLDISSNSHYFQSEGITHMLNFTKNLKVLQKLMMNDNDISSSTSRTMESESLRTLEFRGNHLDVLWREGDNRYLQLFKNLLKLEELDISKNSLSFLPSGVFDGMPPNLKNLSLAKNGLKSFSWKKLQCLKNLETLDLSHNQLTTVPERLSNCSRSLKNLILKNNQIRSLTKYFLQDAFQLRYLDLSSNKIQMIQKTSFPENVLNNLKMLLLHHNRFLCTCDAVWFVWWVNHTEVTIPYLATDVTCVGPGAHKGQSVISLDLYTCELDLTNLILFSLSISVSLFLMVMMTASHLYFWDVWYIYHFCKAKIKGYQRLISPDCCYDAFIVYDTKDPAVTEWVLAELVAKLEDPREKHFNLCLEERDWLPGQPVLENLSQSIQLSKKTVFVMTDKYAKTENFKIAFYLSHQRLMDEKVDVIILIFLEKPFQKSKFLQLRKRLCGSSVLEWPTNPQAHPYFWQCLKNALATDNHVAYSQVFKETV", "assay": "Toll-Like Receptor (TLR) screening assay, TLR7", "assay_type": "cell-based", "settings": "10 μM"}, "[2]": {"tested_on": "human toll-like receptors (TLR)", "assay": "Toll-like receptor test, overall statement", "assay_type": "cell-based", "settings": "10 μM", "text": "While the role of HMGB1 in cancer biology is complex, the influence of spermine on this danger signaling biomolecule is well established. […] It could be that the tumor's propensity to secrete higher concentrations of spermine allow them to hide from the immune system by negating HMGB1 ability to stimulate an immune response. Therefore, the balance between pro-immune effects of HMGB1 and the counter-immune effects of spermine mediated through this pathway may be shifted by using PBT."}}}
{"smiles": "CCCCCCCCCCCCCCCC(=O)NCCCC[C@@H](N)C(=O)NCCCNCCCCNCCCN", "note": "[AMXT 1501, D-Lys(C16acyl)-Spm]", "values": [{"measurement": "anti-tumor response to single agent", "setting": "[1]; agent alone", "result": "did not reduce tumor growth"}, {"measurement": "potency to inhibit tumor growth in combination with DFMO, AMXT 1501 versus AMXT 1569", "setting": "[1]; combined with DFMO", "result": "slightly better results"}, {"measurement": "stimulatory effect on TLR2", "setting": "human TLR 2", "result": "19 % of control"}, {"measurement": "stimulatory effect on TLR4", "setting": "human TLR4", "result": "16 % of control"}, {"measurement": "activity on TLR3", "setting": "human TLR3", "result": "no significant activity"}, {"measurement": "activity on TLR5", "setting": "human TLR5", "result": "no significant activity"}, {"measurement": "activity on TLR7", "setting": "human TLR7", "result": "no significant activity"}, {"measurement": "stimulatory effect on human toll-like receptors", "setting": "[2]", "result": "no significant stimulatory effect"}]}
